Data taken from patent publication US5064860A, “Method of inhibiting superoxide generation” (G. D. Searle & Co., priority 1990, dated 1991).
pIC50: −log10 of the molar value. “Also recorded” adds a separate entry of the source. Like-named read-outs stand apart in the source and are kept apart here.

What was measured:
5-lipoxygenase = molecular target: T1, 5-lipoxygenase (Rattus norvegicus, UniProt P12527); experiment: Inhibition of 5-lipoxygenase, in vitro (5-HETE synthesis from [1-14C]-arachidonic acid, RBL-1 supernatant); assay type: biochemical; settings: for pIC50: RBL-1 100,000×g supernatant
T1 construct: Rat Basophilic Leukemia Cell Homogenate (RBL-1) serves as a 5-lipoxygenase enzyme source; endogenous in cells; host or cells: RBL-1 (rat basophilic leukemia) cells, 100,000×g supernatant of homogenate
T1 sequence (P12527 1-673): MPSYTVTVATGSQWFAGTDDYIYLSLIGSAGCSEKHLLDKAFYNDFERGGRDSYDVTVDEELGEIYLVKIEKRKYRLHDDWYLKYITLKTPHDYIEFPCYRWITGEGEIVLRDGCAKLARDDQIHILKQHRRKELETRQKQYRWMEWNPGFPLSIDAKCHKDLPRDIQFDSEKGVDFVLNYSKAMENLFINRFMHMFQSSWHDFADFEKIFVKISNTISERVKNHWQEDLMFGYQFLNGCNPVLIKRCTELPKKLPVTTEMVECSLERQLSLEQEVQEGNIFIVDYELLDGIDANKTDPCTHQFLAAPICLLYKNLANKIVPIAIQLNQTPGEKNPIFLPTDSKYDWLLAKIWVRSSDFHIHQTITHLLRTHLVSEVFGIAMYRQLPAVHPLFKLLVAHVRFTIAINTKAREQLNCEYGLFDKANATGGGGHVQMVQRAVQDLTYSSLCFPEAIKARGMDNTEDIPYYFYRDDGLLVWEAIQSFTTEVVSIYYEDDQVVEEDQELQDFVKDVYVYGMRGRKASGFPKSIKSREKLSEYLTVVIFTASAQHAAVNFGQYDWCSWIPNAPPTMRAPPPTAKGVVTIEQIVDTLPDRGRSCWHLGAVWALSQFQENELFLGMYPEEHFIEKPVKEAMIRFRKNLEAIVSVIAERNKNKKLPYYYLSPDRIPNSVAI
Procedure: Inhibition of 5-lipoxygenase, in vitro:
anti-inflammatory, anti-allergy activities.
The 100,000×g supernatant fraction of Rat Basophilic Leukemia Cell Homogenate (RBL-1) serves as a 5-lipoxygenase enzyme source. The enzyme is incubated with [1-^14 C)-arachidonic acid and Ca++ in the presence and absence of test compound. The product of 5-lipoxygenase, 5-hydroxyeicosatetraenoic acid (5-HETE), is separated by thin-layer chromatography and measured by radioactivity. A compound inhibiting 5-HETE synthesis by 30% or more is considered active at that concentration.

[1] = test system: FMLP-stimulated human neutrophils; experiment: Human neutrophil superoxide generation, FMLP-stimulated (cytochrome C reduction); assay type: cell-based; settings: for pIC50: read-out: Inhibition of FMLP Induced Superoxide IC50
Procedure: Human neutropil suproxide generation: Superoxide generation by formyl-methionyl-leucyl-phenylalanine (FMLP)-stimulated neutrophils was quantitated by the reduction of cytochrome C (Badwey, J. A., Curnutte, J. T. and Karnovsky, M. L., cis-Polyunsaturated fatty acids induce high levels of superoxide production by human neutrophils. J. Biol. Chem. 256: 12640-12643, 1981.) To 5 million neutrophils in 2.85 ml of Krebs-Ringer phosphate buffer, pH 7.2, 50 μl of inhibitor (in 10% DMSO/buffer), and 50 ul ferricytochrome C (5 mM, stock) were added and preincubated for 3 minutes at 37° C. Absorption measurements at 550 nm were recorded at start of preincubation. Fifty ul FMLP (6 uM, stock) was added to initiate reaction. A plateau was reached within 3 minutes and this reading--initial reading (before addition of FMLP) was used to calculate nanomoles of superoxide generated based on a molar extinction coefficient of 2.1×10^4 cm^-1 mole^-1.
Isolation of human neutrophils: Human neutrophils were isolated from freshly drawn blood of healthy donors. Two ml of 5% dextran (MW 200,000-300,000) in saline was added to 10 ml aliquots of blood, mixed and placed upright for 45 min. at 37° C. Approx. 8-10 ml of the plasma-white cell suspension from the dextran sedimentation was layered on 3 ml of Ficol-paque in a ml tube and centrifuged at 400 g for 30 min. The supernate, containing plasma and platelets, was discarded by aspiration, and the pellet, containing predominantly neutrophils, was resuspended in 1 ml saline. The suspension was transferred to a clean tube, and pooled with other aliquots of blood treated similarly. The pooled suspension was centrifuged at 350 g for 5 min. and supernate discarded. The pellet was resuspended in 5 ml of 0.05% NaCl with a plastic Pasteur pipette for 25 seconds to lyse contaminating red cells, then 5 ml of 1.75% NaCl added to regain isotonicity. The red cell lysing procedure was repeated, the cells suspended in appropriate buffer (depending on assay) and counted.

[2] = Neutrophil, human neutrophils, FMLP

C[C@H](Sc1cc(C(C)(C)C)c(O)c(C(C)(C)C)c1)[C@@H](C)OCC(=O)O (relative stereo) [Example 9, 11, (±)[2S*-[[3,5-bis(1,1-dimethyl-ethyl)-4-hydroxyphenyl]thio]-1R*-methylpropoxy]acetic acid]
pIC50 (5-lipoxygenase): 5.31
pIC50 [1, 2]: 4.96

C[C@@H](OCC(=O)O)[C@H](C)[S+]([O-])c1cc(C(C)(C)C)c(O)c(C(C)(C)C)c1 (relative stereo) [Example 12, (±)[2S*-[[3,5-bis(1,1-dimethylethyl)-4-hydroxyphenyl]sulfinyl]-1R*- methylpropoxy]acetic acid]
inhibition at 100 µM (5-lipoxygenase): 12%
pIC50 [1, 2]: ~4.30

C[C@@H](OCC(=O)O)[C@H](C)S(=O)(=O)c1cc(C(C)(C)C)c(O)c(C(C)(C)C)c1 (relative stereo) [Example 13, (±)[2S*-[[3,5-bis(1,1-dimethylethyl)-4-hydroxyphenyl]sulfonyl]-1R*- methylpropoxy]acetic acid]
inhibition at 100 µM (5-lipoxygenase): 4%
pIC50 [1, 2]: ~4.52

C[C@H](Sc1cc(C(C)(C)C)c(O)c(C(C)(C)C)c1)[C@@H](C)OCC(=O)O (single isomer, unassigned) [Example 17, (-)[2S*-[[3,5-bis(1,1-dimethylethyl)-4-hydroxyphenyl]thio]-1R*-methylpropoxy]acetic acid]
pIC50 (5-lipoxygenase): 5.37
pIC50 ([1]; human neutrophils, FMLP): 5.00

C[C@H](Sc1cc(C(C)(C)C)c(O)c(C(C)(C)C)c1)[C@@H](C)OCC(=O)O (single isomer, unassigned) [Example 18, (+)[2S*-[[3,5-bis(1,1-dimethylethyl)-4-hydroxyphenyl]thio]-1R*-methylpropoxy]acetic acid]
pIC50 (5-lipoxygenase): 5.46
pIC50 [1, 2]: 5.00

CC(C)(C)c1cc(SCCSCC(=O)O)cc(C(C)(C)C)c1O [Example 4, 5, [[2-[[3,5-bis(1,1-dimethylethyl)-4-hydroxyphenyl]thio]ethyl]thio]aceticacid]
pIC50 (5-lipoxygenase): 5.48
pIC50 [1, 2]: 5.30

CN(CCc1ccccn1)C(=O)CCSc1cc(C(C)(C)C)c(O)c(C(C)(C)C)c1 [Formula IV, reference compound]
5-lipoxygenase inhibition, result in words (5-lipoxygenase): inhibited 5-lipoxygenase
pIC50 (5-lipoxygenase): 6.49
activation at 5 µM ([1]; Homo sapiens, Neutrophil, at 5 μm, read-out: increase in superoxide generated by neutrophils): 50%
activation at 10 µM ([1]; Homo sapiens, Neutrophil, at 10 μm, read-out: increase in superoxide generated by neutrophils): 227%
FMLP Induced Superoxide, result in words ([1]; human neutrophils, FMLP): Stimulates; also recorded: did not inhibit superoxide generation
